Results published in article PMC2840032, “Discovery of Fragment Molecules That Bind the Human Peroxiredoxin 5 Active Site” (PLoS ONE, 2010).

Key:
[1] = biological target: T1, human PRDX5 (Homo sapiens, UniProt P30044); test: NMR screening: STD factor (f STD) of fragments with PRDX5; type: binding; settings: for f STD: F152 compared with D3; for STD factor (f STD): Figure 2, relative degree of saturation normalized to that of F090
T1 construct: 6xHis (N); made in house; host or cells: E. coli strain M15 (pRep4)
T1 sequence (P30044 53-214): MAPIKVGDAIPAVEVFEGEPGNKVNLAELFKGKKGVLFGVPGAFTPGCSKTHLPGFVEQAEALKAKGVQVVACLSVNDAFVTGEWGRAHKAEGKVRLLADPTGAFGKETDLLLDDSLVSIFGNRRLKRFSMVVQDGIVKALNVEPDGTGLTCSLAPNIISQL
Method: All spectra were acquired at 20°C with a Varian Inova 600 MHz NMR spectrometer, equipped with a standard 5 mm triple-resonance inverse probe with a z-axis field gradient, actively shielded, and with an autosampler robot. The NMR samples were prepared with a robot TECAN Miniprep 60. For 175 fragments, 32 NMR tubes were prepared with 20 µM of the reduced protein and 600 µM fragments. For 25 fragments (6 NMR samples) that were not soluble at 600 µM in water, the final concentration in the NMR tube was set to 200 µM. All samples contained 1 mM DTT. […] Control 1D ^1H spectra preceded all experiments to assess the purity and stability of the fragments. NMR screening was achieved using 1D STD [30] and Waterlogsy experiments. The parameters used were the same as previously described. All NMR spectra were processed with the Varian VnmrJ software.
(§1) KD values were determined by fitting the plot of [L]tot vs. f STD as previously published.

[2] = biological target: T1, human PRDX5; test: Thioredoxin peroxidase activity inhibition assay; type: biochemical; settings: 0–600 µM
Method: Inhibition of thioredoxin peroxidase activity was assayed using thioredoxin peroxidase assay in a 96-well plate reader essentially as described by Kim et al. [48] and Theys et al. [49]. Briefly, the spectrometric assay was performed in a 160 µl reaction mixture containing 500 µM NADPH, 4 µM recombinant S.cerevisiae thioredoxin, 2 µM recombinant S.cervisiae thioredoxin reductase, 0.6 µM human recombinant PRDX5 and increasing concentrations (0 to 6 mM) of fragments (from stock solutions in DMSO) in PBS 0.1M (pH 7.4). The reaction was initiated by adding H2O2 at the final concentration of 100 µM. NADPH oxidation was monitored by following absorbance at 340 nm for 30 min at 37°C. The initial rate of reaction was calculated using the linear portion of the curve and was expressed as the amount of NADPH oxidized per min. The IC50 was calculated with the percentage of remaining thioredoxin peroxidase activity. Measurements were performed in quadruplicates.

[3] = Solubility in water / in the assay; type: physicochemical; settings: for solubility in water: for KD measurement by STD titration; for solubility in the assay: thioredoxin peroxidase inhibition assay
From the text: We previously designed a small generalist library of 60 fragments and used it to elaborate an inhibitor of the Creatine kinase protein [27], based on the identification of an initial fragment by NMR screening. Here, the library was enlarged and contains 200 fragments that correspond to small commercial compounds with physicochemical properties defined by the rule of three. The 140 newly added fragments were chosen so as to enhance the diversity of the library in terms of size, shape and chemical functionalities. […] Waterlogsy experiments were recorded to detect possible aggregation as LOGSY effects are characteristic of high molecular weight compounds in water. When the molecules were not soluble at 600 µM, solutions were tested at 200 µM. If not soluble, the molecules were rejected from the selection. Then, to optimize the experimental time and to reduce the protein quantity required for the NMR screening experiments, fragments were pulled into mixtures of 3 to 6 molecules with minimum spectral overlap. NMR spectra of the mixtures were recorded after 3 months to confirm the absence of degradation of the compounds.
The compounds of the library were chosen from Aldrich or Acros online catalogs with SHAPES-like criteria [40]–[42] and had to fit the rule of three. Aqueous solubility was checked for all compounds by recording ^1H 1D NMR spectrum and Waterlogsy spectrum, [43]. 110 mM stock solutions of the library compounds were prepared in DMSO-d 6 and conserved at −20°C. ^1H 1D NMR spectrum were recorded to check that no degradation occurs over 3 months. Compounds were mixed by 3 to 6 to decrease the NMR experimental time as well as the protein quantity. Criteria for the compound selection for the mixtures were the absence of overlapping resonances in the 1D NMR spectra. The library contained 200 validated fragments.

[4] = biological target: T1, human PRDX5; test: KD measurements by STD factor variation upon titration; type: binding
Method: as §1

| Structure (SMILES) | STD factor (f STD) [1] | solubility in water [3] | other results |
| --- | --- | --- | --- |
| Cc1ccc(O)c(O)c1 [D3, 4-methyl-catechol] | – | – | f STD [1]: 66% |
| Oc1ccccc1-c1ccccc1 [F012] | 88 | too low | inhibitory activity on thioredoxin peroxidase activity [2]: no inhibitory activity |
| Oc1cccc2[nH]c3ccccc3c12 [F069] | 42 | too low | – |
| O=C(c1ccccc1)c1ccc(O)cc1O [F082] | 69 | too low | – |
| Oc1ccccc1Cc1ccccc1O [F090, bis-(2-hydroxyphenyl)-methan] | 100 | – | Kd ([4]; STD titration, reduced PRDX5, read-out: dissociation constant KD): 1200 ± 400 µM; ligand efficiency ([4]; free energy of binding divided by the number of heavy atoms): 0.42 kcal/mol; solubility in the assay [3]: insufficient solubility |
| Oc1ccc(-c2ccc(O)cc2)cc1 [F093] | 76 | too low | solubility in the assay [3]: insufficient solubility |
| Oc1ccccc1O [F152, catechol] | 32 | – | f STD [1]: 32% |
